Reference: ChEMBL document CHEMBL3608226, “Synthesis and biological evaluation of phaitanthrin congeners as anti-mycobacterial agents” (2015)
Values after ≈ are worked out from the molar mass of the structure shown.

What follows are molecules tested on Mycolicibacterium smegmatis (assay: Antimycobacterial activity against Mycobacterium smegmatis). Conditions: not given.
Format: functional
O=C1c2ccccc2-n2c1nc1ccccc1c2=O [TRYPTANTHRIN] gave an MIC of 6 µg/mL (≈ 24.2 µM).

What follows are molecules tested on Mycobacterium tuberculosis (assay: Antimycobacterial activity against Mycobacterium tuberculosis H37Rv ATCC 27294 after 28 days by agar dilution method). Conditions: H37Rv ATCC 27294, 672 h.
Format: functional
With O=c1c2ccccc2[nH]c2c(-c3c(-c4ccccc4)[nH]c4ccccc34)c3ccccc3n12 the MIC was 8.58 µM (≈ 3.65 µg/mL). In the case of O=c1c2ccccc2[nH]c2c(-c3c(-c4ccccc4O)[nH]c4ccccc34)c3ccccc3n12, the MIC was 29.4 µM (≈ 13 µg/mL). N#Cc1ccc(-c2[nH]c3ccccc3c2-c2c3ccccc3n3c(=O)c4ccccc4[nH]c23)cc1 gave an MIC of 7.06 µM (≈ 3.18 µg/mL). Work on O=c1c2ccccc2[nH]c2c(-c3c(-c4ccc(F)cc4)[nH]c4ccccc34)c3ccccc3n12 yielded an MIC of 27.7 µM (≈ 12.3 µg/mL). O=c1c2ccccc2[nH]c2c(-c3c(-c4ccc(Br)cc4)[nH]c4ccccc34)c3ccccc3n12 was tested, and the MIC was 56.4 µM (≈ 28.5 µg/mL). Molecule Nc1ccccc1-c1[nH]c2ccccc2c1-c1c2ccccc2n2c(=O)c3ccccc3[nH]c12 has an MIC of 6.18 µM (≈ 2.72 µg/mL). With O=c1c2ccccc2[nH]c2c(-c3c(-c4cccs4)[nH]c4ccccc34)c3ccccc3n12 the MIC was 7.3 µM (≈ 3.15 µg/mL). CCc1ccc(-c2[nH]c3ccccc3c2-c2c3ccccc3n3c(=O)c4ccccc4[nH]c23)cc1 showed an MIC of 12.3 µM (≈ 5.59 µg/mL). In the case of Nc1ccc(-c2[nH]c3ccccc3c2-c2c3ccccc3n3c(=O)c4ccccc4[nH]c23)cc1, the MIC was 14.2 µM (≈ 6.24 µg/mL). Work on O=C(CC1(O)c2ccccc2-c2nc3ccccc3nc21)c1ccc(Br)cc1 (racemic) yielded an MIC of 14.4 µM (≈ 6.22 µg/mL). In the case of Nc1ccccc1C(=O)CC1(O)c2ccccc2-c2nc3ccccc3nc21 (racemic), the MIC was 17 µM (≈ 6.25 µg/mL). In the case of Nc1ccc(C(=O)CC2(O)c3ccccc3-c3nc4ccccc4nc32)cc1 (racemic), the MIC was 8.45 µM (≈ 3.1 µg/mL). Brc1ccc(C2=NN(c3ccccc3)C3(C2)c2ccccc2-c2nc4ccccc4nc23)cc1 (racemic) gave an MIC of 12.4 µM (≈ 6.25 µg/mL). In the case of Nc1ccccc1C1=NN(c2ccccc2)C2(C1)c1ccccc1-c1nc3ccccc3nc12 (racemic), the MIC was 56.9 µM (≈ 25 µg/mL). Nc1ccc(C2=NN(c3ccccc3)C3(C2)c2ccccc2-c2nc4ccccc4nc23)cc1 (racemic) was tested, and the MIC was 7.17 µM (≈ 3.15 µg/mL). Molecule O=C(CC1(O)c2ccccc2-n2c1nc1ccccc1c2=O)c1ccccc1O (racemic) has an MIC of 16.2 µM (≈ 6.24 µg/mL). With N#Cc1ccc(C(=O)CC2(O)c3ccccc3-n3c2nc2ccccc2c3=O)cc1 (racemic) the MIC was 15.9 µM (≈ 6.26 µg/mL). Work on O=C(CC1(O)c2ccccc2-n2c1nc1ccccc1c2=O)c1ccc(F)cc1 (racemic) yielded an MIC of 8.85 µM (≈ 3.42 µg/mL). With O=C(CC1(O)c2ccccc2-n2c1nc1ccccc1c2=O)c1ccc(Br)cc1 (racemic) the MIC was 112 µM (≈ 50 µg/mL). In the case of Nc1ccccc1C(=O)CC1(O)c2ccccc2-n2c1nc1ccccc1c2=O (racemic), the MIC was 3.99 µM (≈ 1.53 µg/mL). In the case of O=C(CC1(O)c2ccccc2-n2c1nc1ccccc1c2=O)c1cccs1 (racemic), the MIC was 16.7 µM (≈ 6.25 µg/mL). Work on CCc1ccc(C(=O)CC2(O)c3ccccc3-n3c2nc2ccccc2c3=O)cc1 (racemic) yielded an MIC of 7.88 µM (≈ 3.12 µg/mL). For Nc1ccc(C(=O)CC2(O)c3ccccc3-n3c2nc2ccccc2c3=O)cc1 (racemic), the MIC was 16.3 µM (≈ 6.26 µg/mL). O=C(CC1(O)c2cccc(Br)c2-n2c1nc1ccccc1c2=O)c1ccc(Br)cc1 (racemic) gave an MIC of 11.9 µM (≈ 6.24 µg/mL). In the case of O=C(CC1(O)c2ccccc2-n2c1nc1ccccc1c2=O)c1ccccc1NC(=S)Nc1ccc([N+](=O)[O-])cc1 (racemic), the MIC was 5.98 µM (≈ 3.37 µg/mL). For O=C(CC1(O)c2ccccc2-n2c1nc1ccccc1c2=O)c1ccccc1 (racemic), the MIC was 16.9 µM (≈ 6.23 µg/mL). Molecule O=C(O)c1cn(C2CC2)c2cc(N3CCNCC3)c(F)cc2c1=O [CIPROFLOXACIN] has an MIC of 12.6 µM (≈ 4.17 µg/mL). Work on CC[C@@H](CO)NCCN[C@@H](CC)CO [ETHAMBUTOL] yielded an MIC of 15.3 µM (≈ 3.13 µg/mL).

What follows are molecules tested on Mycobacterium avium (assay: Antimycobacterial activity against Mycobacterium avium). Conditions: not given.
Format: functional
For O=C1c2ccccc2-n2c1nc1ccccc1c2=O [TRYPTANTHRIN], the MIC was 4 µg/mL (≈ 16.1 µM).

Each molecule was assayed on Mycobacterium tuberculosis (assay: Antimycobacterial activity against Mycobacterium tuberculosis H37Rv). Conditions: not given.
Format: functional
With O=C1c2ccccc2-n2c1nc1ccccc1c2=O [TRYPTANTHRIN] the MIC was 1 µg/mL (≈ 4.03 µM).
